Source: patent US7838463B2, “Safeners based on acrylic-aliphatic carboxylic acid derivatives” (Bayer CropScience AG, priority 2003, dated 2010)

Columns and labels:
Assay type in all cases: in vivo
[1] = system: Zea mays (corn), cv. 'Lorenzo'; test: Post-emergence application of herbicide H2 (foramsulfuron) after seed dressing with safener; conditions: for % damage in ZEAMA: four weeks
Experimental: The number of crop plant seeds required for each application rate of safener was calculated. Sufficient seeds were weighed-out into glass bottles having a screw-on lid. The volume of the glass bottles was approximately twice that of the seeds weighed out. The safeners were formulated as 20 percent strength water-dispersible powders. These formulations were weighed out to give the required application rates (g of a.i./kg of seed). The samples were added to the seed in the glass containers, and sufficient water to form a suitable seed dressing was then added. The glass bottles were closed and then mounted in an overhead shaker (which turns the bottles at moderate speed for a period of up to one hour) so that the seeds were uniformly covered with the seed dressing. The bottles were opened and the seed was ready for use in pre-emergence or post-emergence experiments, as described below. The seeds treated with safener and untreated seeds were sown in sandy loam soil in round plastic pots of a diameter of 13 cm and covered with a layer of sandy loam of a thickness of about 1 cm. The pots were placed in a greenhouse under favorable growth conditions for a period of about two to three weeks, allowing the plants to reach a growth stage of 2 to 4 leaves. The herbicides in the form of liquid (for example emulsion concentrates) or dry (for example water-dispersible powders) formulations were mixed with a standard additive (based on rapeseed oil methyl ester), diluted with deionized water to the required concentrations and applied to the green parts of the plants and the uncovered part of the soil surface with a spray bar using a water application rate of 300 liters per hectare. In the experiment shown below, the herbicide foramsulfuron was used as 20 percent strength water-dispersible powder (results see table 2.3.1). The pots were placed in a greenhouse under favorable growth conditions. Visual scoring of the herbicidal action was carried out four weeks after the herbicide application. Evaluation was carried out on a percentage basis by comparison with untreated control plants (0%=no noticeable effect compared with the untreated plant, 100%=treated plant dies).

[2] = system: Setaria viridis; test: Pre-emergence application of herbicide H1 (isoxaflutole) and safener by the tank mix method: herbicidal action; conditions: safener 250 g a.i./ha + herbicide H1 (isoxaflutole) 100 g a.i./ha, pre-emergence tank mix; four weeks
Experimental: (§1) Seeds of various crop plants and weed species were sown in sandy loam soil in round plastic pots of a diameter of 13 cm and covered with a layer of sandy loam of a thickness of about 1 cm. Herbicides and safeners in the form of liquid (for example emulsion concentrates) or dry (for example water-dispersible powders) formulations were diluted with deionized water to the required concentrations and applied to the surface of the soil with a spray bar using a water application rate of 300 liters per hectare. In the experiment shown below, the safeners were used as 20 percent strength water-dispersible powders and the herbicide isoxaflutole was used as an aqueous suspension concentrate (see table 1.1.1). The pots were placed in a greenhouse under favorable growth conditions. Visual scoring of the herbicidal action was carried out four weeks after the herbicide application. Evaluation was carried out on a percentage basis by comparison with untreated control plants (0%=no noticeable effect compared with the untreated plant, 100%=treated plant dies).

[3] = system: Chenopodium album; test: as above; conditions: safener 250 g a.i./ha + herbicide H1 (isoxaflutole) 100 g a.i./ha, pre-emergence tank mix; four weeks
Experimental: as §1

[4] = system: Setaria viridis; test: Post-emergence application of herbicide H2 (foramsulfuron) and safener by the tank mix method: herbicidal action; conditions: four weeks
From the text: (§2) Seeds of various crop plants and weed species were sown in sandy loam soil in round plastic pots of a diameter of 13 cm and covered with a layer of sandy loam of a thickness of about 1 cm. The pots were placed in a greenhouse under favorable growth conditions for a period of about two to three weeks, allowing the plants to reach a growth stage of 2 to 4 leaves. The herbicides in the form of liquid (for example emulsion concentrates) or dry (for example water-dispersible powders) formulations were mixed with a standard additive (based on rapeseed oil methyl ester), diluted with deionized water to the required concentrations and applied to the green parts of the plants and the uncovered part of the soil surface with a spray bar using a water application rate of 300 liters per hectare. In the experiment shown below, safener and the herbicide foramsulfuron were in each case used as 20 percent strength water-dispersible powder (results see table 1.2.1). The pots were placed in a greenhouse under favorable growth conditions. Visual scoring of the herbicidal action was carried out four weeks after the herbicide application. Evaluation was carried out on a percentage basis by comparison with untreated control plants (0%=no noticeable effect compared with the untreated plant, 100%=treated plant dies).

[5] = system: Amaranthus retroflexus; test: as above; conditions: four weeks
From the text: as §2

[6] = system: Zea mays (corn), cv. 'Lorenzo'; test: Post-emergence application of herbicide H3 (glufosinate-ammonium) and safener by the tank mix method: crop damage; conditions: safener 250 g a.i./ha + herbicide H3 (glufosinate-ammonium) 250 g a.i./ha, post-emergence tank mix
From the text: (§3) Seeds of various crop plants and weed species were sown in sandy loam soil in round plastic pots of a diameter of 13 cm and covered with a layer of sandy loam of a thickness of about 1 cm. The pots were placed in a greenhouse under favorable growth conditions for a duration of about two to three weeks, allowing the plants to reach a growth stage of 2 to 4 leaves. The herbicides, in the form of liquid (for example emulsion concentrates, aqueous solutions) or dry (for example water-dispersible powders) formulations, were diluted with deionized water to the required concentrations and applied to the green parts of the plants and the uncovered part of the surface of the soil with a spray bar using a water application rate of 300 liters per hectare. In the experiment shown below, the safeners were used as 20 percent strength water-dispersible powders and the herbicide glufosinate-ammonium as a commercial 20 percent strength aqueous surfactant-containing solution (results see table 1.2.2).
(§4) The pots were placed in a greenhouse under favorable growth conditions. Visual scoring of the herbicidal action was carried out four weeks after the herbicidal application. Evaluation was carried out on a percentage basis by comparison with untreated control plants (0%=no noticeable effect compared with the untreated plant, 100%=treated plant dies).

[7] = system: Zea mays (corn), cv. 'Lorenzo'; test: Post-emergence application of herbicide H2 (foramsulfuron) and safener by the tank mix method: crop damage; conditions: for Safener action as % damage reduction in crop plants: ZEAMA, versus herbicide alone
From the text: as §2

[8] = system: Chenopodium album; test: Post-emergence application of herbicide H3 (glufosinate-ammonium) and safener by the tank mix method: herbicidal action; conditions: safener 250 g a.i./ha + herbicide H3 (glufosinate-ammonium) 250 g a.i./ha, post-emergence tank mix; four weeks
From the text: as §3, §4

[9] = system: Amaranthus retroflexus; test: as above; conditions: safener 250 g a.i./ha + herbicide H3 (glufosinate-ammonium) 250 g a.i./ha, post-emergence tank mix; four weeks
From the text: as §3, §4

[10] = system: Zea mays (corn), cv. 'Lorenzo'; test: Pre-emergence application of herbicide H1 (isoxaflutole) and safener by the tank mix method: crop damage; conditions: safener 250 g a.i./ha + herbicide H1 (isoxaflutole) 100 g a.i./ha, pre-emergence tank mix
Experimental: as §1

[11] = system: Zea mays (corn), cv. 'Lorenzo'; test: Pre-emergence application of herbicide H1 (isoxaflutole) after seed dressing with safener; conditions: seed dressing with safener 1 g a.i./kg of seed
Experimental: (§5) The number of crop plant seeds required for each application rate of safener was calculated. Sufficient seeds were weighed-out into glass bottles having a screw-on lid. The volume of the glass bottles was approximately twice that of the seeds weighed out.
(§6) The safeners were formulated as 20 percent strength water-dispersible powders. These formulations were weighed out to give the required application rates (g of a.i./kg of seed). The samples were added to the seed in the glass containers, and sufficient water to form a suitable seed dressing was then added. The glass bottles were closed and then mounted in an overhead shaker (which turns the bottles at moderate speed for a period of up to one hour) so that the seeds were uniformly covered with the seed dressing. The bottles were opened and the seed was ready for use in pre-emergence or post-emergence experiments, as described below.
(§7) The seeds which had been treated with safeners and untreated seeds as controls were sown in sandy loam soil in round plastic pots of a diameter of 13 cm and covered with a layer of sandy loam of a thickness of about 1 cm. The herbicides in the form of liquid (for example emulsion concentrates) or dry (for example water-dispersible powders) formulations were diluted with deionized water to the required concentrations and applied to the surface of the soil with a spray bar using a water application rate of 300 liters per hectare. In the two experiments shown below (results see tables 2.2.1 and 2.2.2), the herbicide isoxaflutole was used as an aqueous suspension concentrate.
as §4, with “after the herbicide application. Evaluation” for “after the herbicidal application. Evaluation”

[12] = system: Glycine max (soybean), cv. 'Lambert'; test: as above; conditions: seed dressing with safener 1 g a.i./kg of seed
Experimental: as §5, §6, §7
as §4, with “after the herbicide application. Evaluation” for “after the herbicidal application. Evaluation”

[13] = safener 250 g a.i./ha + herbicide H2 (foramsulfuron) 40 g a.i./ha, post-emergence tank mix
[14] = safener 250 g a.i./ha + herbicide H2 (foramsulfuron) 40 g a.i./ha, post-emergence tank mix, visual scoring four weeks after application
[15] = then herbicide H1 (isoxaflutole) 100 g a.i./ha pre-emergence, four weeks
[16] = herbicide H2 (foramsulfuron) 40 g a.i./ha alone, no safener, post-emergence

**Q.** How did the “Safener action as % damage reduction in crop plants” value ([1]; ZEAMA, seed dressing with safener 1 g a.i./kg of seed, herbicide H2 (foramsulfuron) 40 g a.i./ha post-emergence, versus untreated seed) turn out when `O=C(O)C=Cc1ccc(Cl)cc1Cl` [Comp. 155, 2,4-dichlorocinnamic acid] was run?
**A.** The value was 88%.

**Q.** And the “% damage in ZEAMA” value ([1]; seed dressing with safener 1 g a.i./kg of seed, then herbicide H2 (foramsulfuron) 40 g a.i./ha post-emergence)?
**A.** The value was 4%.

**Q.** What about the “Herbicidal action as % damage in SETVI” value [2] of the same molecule?
**A.** Its value is 95%.

**Q.** And the “Herbicidal action as % damage in CHEAL” value [3]?
**A.** Its value is 95%.

**Q.** And the “Herbicidal action as % damage in SETVI” value [4, 13]?
**A.** The value was 95%.

**Q.** And the “Herbicidal action as % damage in AMARE” value [5, 13]?
**A.** The value was 98%.

**Q.** And the “Safener action as % damage reduction in crop plants” value ([6]; ZEAMA, versus herbicide alone)?
**A.** Its value is 66%.

**Q.** And the “% damage in ZEAMA” value ([6]; visual scoring four weeks after application)?
**A.** The value was 21%.

**Q.** What about the “Safener action as % damage reduction in crop plants” value [7, 13] of the same molecule?
**A.** Its value is 83%.

**Q.** And the “% damage in ZEAMA” value [7, 14]?
**A.** Its value is 6%.

**Q.** What about the “Herbicidal action as % damage in CHEAL” value [8] of the same molecule?
**A.** The value was 92%.

**Q.** What about the “Herbicidal action as % damage in AMARE” value [9] of the same molecule?
**A.** Its value is 94%.

**Q.** What about the “Safener action as % damage reduction in crop plants” value ([10]; ZEAMA, versus herbicide alone) of the same molecule?
**A.** Its value is 74%.

**Q.** What about the “% damage in ZEAMA” value ([10]; visual scoring four weeks after application, 0%=no effect, 100%=plant dies) of the same molecule?
**A.** The value was 7%.

**Q.** What about the “Safener action as % damage reduction in crop plants” value ([11]; ZEAMA, herbicide H1 (isoxaflutole) 100 g a.i./ha pre-emergence, versus untreated seed) of the same molecule?
**A.** Its value is 72%.

**Q.** And the “% damage in ZEAMA” value [11, 15]?
**A.** The value was 7%.

**Q.** What about the “Safener action as % damage reduction in crop plants” value ([12]; GLXMA, herbicide H1 (isoxaflutole) 100 g a.i./ha pre-emergence, versus untreated seed) of the same molecule?
**A.** The value was 64%.

**Q.** What about the “% damage in GLXMA” value [12, 15] of the same molecule?
**A.** Its value is 30%.

**Q.** With `CCOC(=O)C=Cc1cccc(O)c1` [Comp. 191, ethyl 3-hydroxycinnamate] as the molecule, how does the “Herbicidal action as % damage in SETVI” value [4, 13] read?
**A.** Its value is 96%.

**Q.** And the “Herbicidal action as % damage in AMARE” value [5, 13]?
**A.** The value was 99%.

**Q.** And the “Safener action as % damage reduction in crop plants” value [7, 13]?
**A.** Its value is 56%.

**Q.** And the “% damage in ZEAMA” value [7, 14]?
**A.** Its value is 16%.

**Q.** Which results are given for `COc1cc(OC)nc(NC(=O)NS(=O)(=O)c2cc(NC=O)ccc2C(=O)N(C)C)n1` [Herbicide H2, foramsulfuron, reference compound]?
**A.** % damage in ZEAMA ([1]; untreated seed (no safener), herbicide H2 (foramsulfuron) 40 g a.i./ha post-emergence): 32%; Herbicidal action as % damage in SETVI [4, 16]: 95%; Herbicidal action as % damage in AMARE [5, 16]: 94%; % damage in ZEAMA ([7]; herbicide H2 (foramsulfuron) 40 g a.i./ha alone, no safener, post-emergence, four weeks): 36%

**Q.** How did the “Herbicidal action as % damage in SETVI” value [4, 13] turn out when `COc1ccc(C=CC(=O)O)cc1` [Comp. 154, 4-methoxycinnamic acid] was run?
**A.** The value was 95%.

**Q.** What about the “Herbicidal action as % damage in AMARE” value [5, 13] of the same molecule?
**A.** Its value is 96%.

**Q.** What about the “Safener action as % damage reduction in crop plants” value [7, 13] of the same molecule?
**A.** Its value is 67%.

**Q.** What about the “% damage in ZEAMA” value [7, 14] of the same molecule?
**A.** The value was 12%.
